Test: Gamma irradiation of compound (I) in different containers, amounts of (I) and breakdown products by HPLC
Format: physicochemical
Excerpt: During pharmaceutical development, aseptic formulations of paliperidone palmitate (I) were initially obtained by gamma irradiation.
Compound (I) was irradiated with various doses of gamma rays in different containers.

[1] = Glass container, gamma dose 5 kGY
[2] = Glass container, gamma dose 10 kGY
[3] = Glass container, gamma dose 15 kGY
[4] = Glass container, gamma dose 20 kGY
[5] = Glass container, gamma dose 25 kGY
[6] = Glass container, gamma dose 30 kGY
[7] = Glass/metal container, gamma dose 5 kGY
[8] = Glass/metal container, gamma dose 10 kGY
[9] = Glass/metal container, gamma dose 15 kGY
[10] = Glass/metal container, gamma dose 20 kGY
[11] = Glass/metal container, gamma dose 25 kGY
[12] = Glass/metal container, gamma dose 30 kGY
[13] = Plastic container, gamma dose 15 kGY
[14] = Plastic container, gamma dose 20 kGY
[15] = Plastic container, gamma dose 25 kGY
[16] = gamma irradiation, maximum found

Compound: CCCCCCCCCCCCCCCC(=O)OC1CCCn2c1nc(C)c(CCN1CCC(c3noc4cc(F)ccc34)CC1)c2=O (centres unmarked) [(I), 3-[2-[4-(6-fluoro-1,2-benzisoxazol-3-yl)-1-piperidinyl]ethyl]-6,7,8,9-tetrahydro-9-hydroxy-2-methyl-4H-pyrido[1,2-a]pyrimidin-4-one palmitate ester]
- amount of (I) [1]: 98.8%
- amount of breakdown product (III) [1]: 0.08%
- amount of breakdown products (II) [sum of (II-a) and (II-b)] [1]: 0.02%
- amount of (I) [2]: 98.7%
- amount of breakdown product (III) [2]: 0.15%
- amount of breakdown products (II) [sum of (II-a) and (II-b)] [2]: 0.05%
- amount of (I) [3]: 98.5%
- amount of breakdown product (III) [3]: 0.23%
- amount of breakdown products (II) [sum of (II-a) and (II-b)] [3]: 0.11%
- amount of (I) [4]: 98.3%
- amount of breakdown product (III) [4]: 0.34%
- amount of breakdown products (II) [sum of (II-a) and (II-b)] [4]: 0.17%
- amount of (I) [5]: 98.2%
- amount of breakdown product (III) [5]: 0.36%
- amount of breakdown products (II) [sum of (II-a) and (II-b)] [5]: 0.18%
- amount of (I) [6]: 98%
- amount of breakdown product (III) [6]: 0.46%
- amount of breakdown products (II) [sum of (II-a) and (II-b)] [6]: 0.24%
- amount of (I) [7]: 98.8%
- amount of breakdown product (III) [7]: 0.08%
- amount of breakdown products (II) [sum of (II-a) and (II-b)] [7]: 0.02%
- amount of (I) [8]: 98.9%
- amount of breakdown product (III) [8]: 0.1%
- amount of (I) [9]: 98.5%
- amount of breakdown product (III) [9]: 0.23%
- amount of breakdown products (II) [sum of (II-a) and (II-b)] [9]: 0.11%
- amount of (I) [10]: 98.4%
- amount of breakdown product (III) [10]: 0.29%
- amount of breakdown products (II) [sum of (II-a) and (II-b)] [10]: 0.15%
- amount of (I) [11]: 97.2%
- amount of breakdown product (III) [11]: 0.35%
- amount of breakdown products (II) [sum of (II-a) and (II-b)] [11]: 0.05%
- amount of (I) [12]: 98.2%
- amount of breakdown product (III) [12]: 0.45%
- amount of breakdown products (II) [sum of (II-a) and (II-b)] [12]: 0.21%
- amount of (I) [13]: 98.3%
- amount of breakdown product (III) [13]: 0.23%
- amount of breakdown products (II) [sum of (II-a) and (II-b)] [13]: 0.03%
- amount of (I) [14]: 97.9%
- amount of breakdown product (III) [14]: 0.29%
- amount of breakdown products (II) [sum of (II-a) and (II-b)] [14]: 0.03%
- amount of (I) [15]: 97.2%
- amount of breakdown product (III) [15]: 0.35%
- amount of breakdown products (II) [sum of (II-a) and (II-b)] [15]: 0.06%
- breakdown product (III) formed [16]: up to 0.46%
- breakdown products (II) [(II-a) and (II-b), co-eluting in HPLC] formed [16]: up to 0.24%
- amount of the breakdown products (II) and (III) versus gamma dose (various doses of gamma rays, different containers): increased dose-dependently

Reference: patent US20080214808A1, “Preparation of Aseptic 3-[2-[4-((6-Fluoro-1,2-Benzisoxazol-3-Yl)-1-Piperidinyl]-6,7,8,9-Tetrahydro-9-Hydroxy-2-Methyl-4H-Pyrido[1,2-a]Pyrimidin-4-One Palmitate Ester” (priority 2005, published 2008)
